Where “and” joins values, the source holds several entries; their conditions need not be identical. Identical values can stand only once. Like-named read-outs stand apart in the source and are kept apart here. Square brackets hold non-standard residues; d marks the D form. Peptide text beside a SMILES is read from it. * marks the point of attachment. Hexanoyl = CCCCCC(=O)*
Experiments:
[1] = test system: X. fastidiosa subsp. fastidiosa IVIA 5387.2
[2] = test system: X. fastidiosa subsp. fastidiosa IVIA 5387.2; type: cell-based, Xylella fastidiosa
[3] = test system: X. fastidiosa subsp. fastidiosa IVIA 5387.2; type: cell-based, Xylella fastidiosa; remark: listed apart in the source
[4] = test system: X. fastidiosa subsp. pauca DD1; type: cell-based, Xylella fastidiosa; conditions: 50 μM; strain DD1; OD595 crystal violet, 28°C, 5 days; three replicates of 10 wells ± confidence interval; listed as NAC
[5] = test system: X. fastidiosa subsp. multiplex IVIA 5901.2; type: cell-based, Xylella fastidiosa; conditions: 50 μM; strain IVIA 5901.2; OD595 crystal violet, 28°C, 5 days; three replicates of 10 wells ± confidence interval; listed as NAC
[6] = test system: X. fastidiosa subsp. multiplex CFBP 8173; type: cell-based, Xylella fastidiosa; conditions: 50 μM; strain CFBP 8173; OD595 crystal violet, 28°C, 5 days; three replicates of 10 wells ± confidence interval; listed as NAC
[7] = test system: X. fastidiosa subsp. fastidiosa Temecula (ATCC 700964); type: cell-based, Xylella fastidiosa; conditions: 50 μM; strain Temecula; OD595 crystal violet, 28°C, 5 days; three replicates of 10 wells ± confidence interval; listed as NAC
[8] = test system: X. fastidiosa subsp. fastidiosa IVIA 5770; type: cell-based, Xylella fastidiosa; conditions: 50 μM; strain IVIA 5770; OD595 crystal violet, 28°C, 5 days; three replicates of 10 wells ± confidence interval; listed as NAC
[9] = test system: several X. fastidiosa strains; conditions: 12.5 μM; cited from earlier work
Gram-negative bacteria [10] = conditions: cited from earlier work
[11] = test system: X. fastidiosa subsp. fastidiosa IVIA 5387.2; conditions: for Bimax (maximum biofilm inhibition): 50 µM
Gram-negative bacteria [12] = conditions: cited from earlier work; remark: listed apart in the source

Molecule | Bactericidal activity: Reduction in viability (Log N0/N) ([1]; 50 µM) | Hemolysis (horse erythrocytes; 150 µM) [%] | Hemolysis (horse erythrocytes; 250 µM) [%] | Hemolysis (horse erythrocytes; 375 µM) [%] | Biofilm formation Level (antibiofilm activity) ([3]; 50 µM) | Biofilm formation Ratio (treatment/NTC) ([3]; 50 µM) | Planktonic cells Ratio (treatment/NTC) ([3]; 50 µM) | ED50 (median effective dose, biofilm inhibition) [11] [µM] | Bimax (maximum biofilm inhibition) [11] [%] | Bactericidal activity: Reduction in viability (Log N0/N) [1] [Log N0/N] | Biofilm formation Level (antibiofilm activity) [3] | Biofilm formation Ratio (treatment/NTC) [3] | Planktonic cells Ratio (treatment/NTC) [3] | other results
CCCCCC(=O)N[C@H](C(=O)N[C@@H](CC(C)C)C(=O)N1CCC[C@H]1C(=O)N[C@H](Cc1ccccc1)C(=O)N[C@@H](CCCCN)C(=O)N[C@H](Cc1ccccc1)C(=O)N1CCC[C@H]1C(=O)N[C@H](Cc1ccccc1)C(=O)N[C@H](Cc1ccccc1)C(=O)N1CCC[C@H]1C(=O)N[C@H](Cc1ccccc1)C(=O)N[C@@H](CCCNC(=N)N)C(=O)N[C@@H](CCCNC(=N)N)C(N)=O)[C@@H](C)CC [BP527] (Hexanoyl-ILP[dF]K[dF]P[dF][dF]P[dF]RR-NH2) | 0.49 ± 0.04 | 62.2 ± 4.4 | 73.6 ± 1.1 | 100.0 ± 2.6 | High (key: High: high antibiofilm activity (ratio of biofilm formation from 0.01 to 0.2); Moderate: moderate activity (ratio from 0.29 to 0.47); Low: low activity (ratio from 0.72 to 0.77)) | 0.18 ± 0.02 | 0.58 ± 0.12 |  |  |  |  |  |  | attached biofilm cells [2]: 12.5%; biofilm detached cells [2]: 45.7%; planktonic cells [2]: 41.7%
CC(=O)N[C@@H](CS)C(=O)O [N-Acetyl-L-cysteine, N-acetyl-L-cysteine] |  | 0.5 ± 0.9 | 0.7 ± 1.1 | 1 ± 2 | Low (low activity (ratio from 0.72 to 0.77)) |  |  |  |  |  |  |  |  | Biofilm formation (Ratio T/NTC) [4]: 0.42 and 0.42 ± 0.05 a; Biofilm formation (Ratio T/NTC) [5]: 1.00 ± 0.04 days; Biofilm formation (Ratio T/NTC) [6]: 0.99; Biofilm formation (Ratio T/NTC) [7]: 0.94 ± 0.02 c; Bactericidal activity: Level ([1]; 50 µM, class by Duncan's test groups): Very low (very low activity with less than 0.3 log); Bactericidal activity: Reduction in viability (Log N0/N) ([1]; 50 µM, contact test 3 h at room temperature in SCP buffer, v-qPCR with PMAxx, N0 = 10^7 CFU/mL non-treated control, mean of three replicates ± confidence interval (α=0.05)): 0.12 ± 0.01 Log N0/N; Biofilm formation (Ratio T/NTC) [8]: 0.97; Planktonic cells Ratio (treatment/NTC) ([3]; 50 µM, OD600 treated / non-treated, PD3, 96-well, 28°C, 5 days, 120 rpm, three replicates of 10 wells ± confidence interval (α=0.05)): 1.71 ± 0.03; Biofilm formation Ratio (treatment/NTC) ([3]; 50 µM, crystal violet OD595 treated / non-treated, PD3, 96-well, 28°C, 5 days, 120 rpm, three replicates of 10 wells ± confidence interval (α=0.05)): 0.72 ± 0.01; Biofilm formation (Ratio T/NTC) ([3]; 50 μM, strain IVIA 5387.2, OD595 crystal violet, 28°C, 5 days, three replicates of 10 wells ± confidence interval, listed as NAC): 0.72 and 0.72 ± 0.01 b
BP178 |  |  |  |  |  |  |  |  |  |  |  |  |  | reduction in viability [9]: approximately 3.6 log
CC[C@H](C)[C@H](NC(=O)[C@H](CCCCN)NC(=O)[C@H](CCCCN)NC(=O)[C@H](CC(C)C)NC(=O)[C@@H](NC(=O)[C@H](CCCNC(=N)N)NC(=O)[C@@H](NC(=O)[C@H](CCCNC(=N)N)NC(=O)[C@@H](NC(=O)[C@H](CCCNC(=N)N)NC(=O)[C@H](Cc1ccccc1)NC(=O)[C@H](CC(C)C)NC(=O)[C@H](CCCNC(=N)N)NC(=O)[C@H](CCCNC(=N)N)NC(=O)[C@H](Cc1ccccc1)NC(=O)[C@@H](N)CCCNC(=N)N)[C@@H](C)CC)C(C)C)C(C)C)C(N)=O [R-FV7-I16] (H-RFRRLFRIRVRVLKKI-NH2; N-terminus assumed) | 0.39 ± 0.01 | 6.3 ± 0.3 | 8.0 ± 1.3 | 9.7 ± 0.6 | High (key: High: high antibiofilm activity (ratio of biofilm formation from 0.01 to 0.2); Moderate: moderate activity (ratio from 0.29 to 0.47); Low: low activity (ratio from 0.72 to 0.77)) | 0.10 ± 0.01 | 1.70 ± 0.12 | 6.3 ± 3.7 | 90.6 |  |  |  |  | Described activity: Antibacterial (Gram-negative bacteria [10]): Ec, Pa, Se; Described activity: Antibiofilm (Gram-negative bacteria [12]): Ec, Pa
CC[C@H](C)[C@H](NC(=O)[C@H](CCCNC(=N)N)NC(=O)[C@H](Cc1ccccc1)NC(=O)[C@H](CCCNC(=N)N)NC(=O)[C@@H](N)CCCCN)C(=O)N[C@@H](CCCNC(=N)N)C(=O)N[C@H](C(=O)N[C@@H](CCCNC(=N)N)C(=O)N[C@H](C(N)=O)C(C)C)C(C)C [Peptide 1037] (H-KRFRIRVRV-NH2) |  |  |  |  |  |  |  | 4.2 ± 2.4 |  | 0.84 ± 0.09 | High (key: High: high antibiofilm activity (ratio of biofilm formation from 0.01 to 0.2); Moderate: moderate activity (ratio from 0.29 to 0.47); Low: low activity (ratio from 0.72 to 0.77)) | 0.15 ± 0.00 | 1.67 ± 0.05 | 
CC[C@H](C)[C@H](N)C(=O)N[C@@H](CC(C)C)C(=O)N1CCC[C@H]1C(=O)N[C@H](Cc1ccccc1)C(=O)N[C@@H](CCCCN)C(=O)N[C@H](Cc1ccccc1)C(=O)N1CCC[C@H]1C(=O)N[C@H](Cc1ccccc1)C(=O)N[C@H](Cc1ccccc1)C(=O)N1CCC[C@H]1C(=O)N[C@H](Cc1ccccc1)C(=O)N[C@@H](CCCNC(=N)N)C(=O)N[C@@H](CCCNC(=N)N)C(N)=O [BP525] (H-ILP[dF]K[dF]P[dF][dF]P[dF]RR-NH2) |  |  |  |  |  |  |  | 4.4 ± 1.3 | 85.8 | 0.74 ± 0.06 | High (key: High: high antibiofilm activity (ratio of biofilm formation from 0.01 to 0.2); Moderate: moderate activity (ratio from 0.29 to 0.47); Low: low activity (ratio from 0.72 to 0.77)) | 0.18 ± 0.01 | 1.83 ± 0.12 | 

— PMC8606745 (Frontiers in Microbiology, 2021)
